In patent US20250188457A1, “COMPOSITIONS AND METHODS FOR THE TREATMENT OF GLIOBLASTOMA BY INHIBITION OF THE TFPI2-CD51-STAT6 SIGNALING AXIS” (Northwestern University, priority 2023, published 2025):
One block for each molecule: values may come before it.

How the values were obtained:
[1] = test system: mouse primary CD8+ T cells cocultured with SIM-A9 microglia; assay: Mouse microglia and CD8+ T cell co-culture, flow cytometry; format: cell-based; conditions: TFPI2 recombinant protein 20 ng/ml; AS1517499 25 nM
Protocol: Primary mouse CD8^+ T cells were isolated from the spleens of C57BL/6 mice using a CD8^+ T cell isolation kit (Miltenyi Biotec, #130-104-075) according to manufacturer's instructions. Isolated CD8^+ T cells were cultured in RPMI 1640 media (Gibco, #22400-089) containing 10% FBS, 50 μM 2-Mercaptoethanol (Sigma, #M7522), and 1:100 antibiotic-antimycotic. Then, primary mouse CD8^+ T cells were expanded by 30 U/ml mouse IL-2 (Miltenyi Biotec, #130-120-662) and activated by Dynabeads® mouse T-activator CD3/CD28 (Gibco, #11456D) at bead-to-cell ratio of 1:1 before analysis and co-culture studies. For membrane protein staining, the single-cell suspensions were washed with PBS and then incubated with fixable viability dye (Invitrogen, #5211229035) on ice for 10 min. Following washing with PBS, cells were incubated with the anti-CD16/CD32 cocktail (BioLegend, #103132) in 2% BSA PBS to block Fc receptors for 30 min on ice. […] Samples were read in BD FACSymphony flow cytometer and analyzed in FlowJo v10.8.1. […] Then cell suspensions were rewashed in permeabilization buffer and read in BD FACSymphony flow cytometer.

HMC3 microglia [2] = assay: Incucyte live-cell and scratch wound healing migration of microglia; format: cell-based, human; conditions: TFPI2 recombinant protein 20 ng/ml; AS1517499 25 nM
Protocol: The scratch-wound assay was performed (Ref. 74; incorporated by reference in its entirety). For tracking single cell movement, microglia were cultured in 96-well plates (Corning, #3599) with different treatments. Incucyte Live Cell Analysis System was used to record cell movement over time. The time-lapse images were reconstructed and analyzed using TrackMate (Refs. 75-76; incorporated by reference in its entirety). The speed of each individual cell was calculated by processing images with LoG detector and Linear Assignment Problem (LAP) tracker.

[3] = test system: CT2A cells and GSC272 cells; assay: T cell-mediated cytotoxicity assay (LDH release); format: cell-based, human and mouse; conditions: TFPI2 recombinant protein 20 ng/ml; AS1517499 25 nM
Protocol: T cell-mediated cytotoxicity was determined by Cytotox96 non-radioactive cytotoxicity assay kit (Promega, #G1780) based on the release of lactate dehydrogenase (LDH). After expansion and activation, mouse primary CD8^+ T cells or human JURKAT T cells were collected. About 10^5 T cells were co-cultured with SIM-A9 microglia or PrhMG (1:1 ratio) treated with TFPI2 recombinant protein in the presence or absence of STAT6 inhibitor AS1517499 for 24 hrs. T cells (effector cells) were then collected for further co-culturing with CT2A cells or GSC272 cells (target cells) at different ratios (10000:1000, 5000:1000, 2500:1000, 1250:1000, 620:1000, 310:1000, 160:1000, 80:1000, 40:1000, 20:1000) for 5 hrs. Experimental groups and corresponding control groups, including effector cell spontaneous LDH release, target cell spontaneous LDH release, target cell maximum LDH release, volume correction control, and culture medium background control were set up following the manufacturer's instructions to evaluate T cell-mediated cytotoxicity on GSCs. Optical density (OD) was measured by a Biotek Synergy 2 SL Microplate Reader. The cytotoxicity was calculated by the formula: (experimental OD value-effector spontaneous OD value-target spontaneous OD value)/(target maximum OD value-target spontaneous OD value).

HMC3 microglia [4] = assay: Human phospho-kinase antibody array; format: cell-based; conditions: 20 ng/ml TFPI2 recombinant protein
Protocol: After starvation for 24 hrs followed by TFPI2 recombinant protein treatment for 1 hr, HMC3 cell lysate was prepared using a lysis buffer with […]. Phosphorylation profiles of kinases were determined using Proteome Profiler Human Phospho-Kinase Array Kit (Bio-Techne, #ARY003C) as the instruction manual. Signal was detected under ChemiDoc Touch Imaging System (Bio-Rad).

Molecule: NC(=O)c1cnc(NCCc2ccc(O)c(Cl)c2)nc1NCc1ccccc1 [AS1517499]
decrease of CD8+ T cell viability by TFPI2-polarized microglia [1]: negated | reduction of the percentage of CD8+CD69+ and CD8+IFNγ+ T cells by TFPI2-treated microglia [1]: prevented | TFPI2-induced HMC3 microglia migration, incucyte live-cell and scratch assays (HMC3 microglia [2]): impairment | suppression of T cell-mediated tumor cell cytotoxicity by TFPI2-polarized microglia [3]: rescued

kinases STAT6 and AKT in phospho-kinase array (HMC3 microglia [4]): activated
B1: TFPI2 recombinant protein (tissue factor pathway inhibitor 2; BioVision, #7481-10) (ligand, UniProt P48307 23-235, looked up)
chain: DAAQEPTGNNAEICLLPLDYGPCRALLLRYYYDRYTQSCRQFLYGGCEGNANNFYTWEACDDACWRIEKVPKVCRLQVSVDDQCEGSTEKYFFNLSSMTCEKFFSGGCHRNRIENRFPDEATCMGFCAPKKIPSFCYSPKDEGLCSANVTRYYFNPRYRTCDAFTYTGCGGNDNNFVSREDCKRACAKALKKKKKMPKLRFASRIRKIRKKQF
notes: Bought recombinant protein added to microglia at 20 ng/ml; also called recombinant TFPI2; secreted TFPI2
